# Measured values as given in PMC9114799, “In vitro Evaluation of Isoniazid Derivatives as Potential Agents Against Drug-Resistant Tuberculosis” (Frontiers in Pharmacology, 2022).
# Where “and” joins values, the source holds several entries; their conditions need not be identical. Equal entries are not always repeated. Where two headings read alike, the source gives them in different places. Marks after values point to notes of the source that are not given here.
# What was measured:
# HepG2 cells = assay: HepG2 cell viability assay (MTT), 72 h; type: cell-based, human; details: for IC50: Homo sapiens, HepG2, 72 h incubation, MTT, 0.5% DMSO, read-out: IC50 against HepG2 cells
# Protocol: HepG2 cells were plated on 384-well tissue culture treated polystyrene plates at 2000 cells in 25 μl of HepG2 maintenance medium per well. After an overnight incubation at 37°C, the cells were dosed with test compounds in dimethyl sulfoxide (DMSO) and controls over wide ranges of concentrations (Table 1) and incubated for 72 h at 37°C. DMSO was at 0.5% in the final solution. The aqueous solubility of the compounds limited the range of concentrations tested. Cell viability was measured using the Promega CellTiter 96 Non-Radioactive Cell Proliferation Assay (MTT) kit by adding the Dye Solution to each well and incubating for 3 h at 37°C. After incubation, the Solubilization Solution/Stop Mix was added to each well. Plates were incubated at 37°C for 1 h, mixed on a plate shaker for 10 min and then absorbance was read at 570 nm. Cell viability was determined by comparison against control cells in the presence of DMSO only and was measured in three independent replicates for each compound concentration. The IC50 was calculated with GraphPad Prism using a Sigmoidal Dose-response (variable slope) algorithm. Chlorpromazine, a drug with a well-known and characterized hepatotoxicity ([Frötschl et al., 2005]; [Gandhi et al., 2013]; [Morgan et al., 2019]), was used as the positive control.
# To evaluate the in vitro toxicity of this series of INH derivatives, the viability of HepG2 cells, a human liver cancer cell line, was determined by the MTT tetrazolium reduction assay ([Riss et al., 2013]), a colorimetric assay to assess cell metabolic activity, and the IC50 value, i.e., the concentration for 50% reduction in cell viability, was obtained for each compound (Supplementary Figure S6). […] The hepatoxicity of INH is well described ([Girling, 1978]; [Wu and Cederbaum, 1996]; [Huang et al., 2003]; [Bhadauria et al., 2007]; [Singh et al., 2011]) and is much lower than that of chlorpromazine.
# HepG2 = details: cited from earlier work
# [1] = octanol-water, cited from earlier work
# [2] = molecular target: T1, human serum albumin (HSA) (Homo sapiens, UniProt P02768); details: for 10-3 K’b / M-1, HSA binding constant from fluorescence intensity variation not accounted for by the decrease in lifetime: head prints 10-3 K’b / M-1, reverse of the dissociation constant
# Protocol: (§1) INH and INH derivatives stock solutions were prepared in DMSO. From the stock solutions, appropriate dilutions were prepared so that each compound was added to HSA in PBS at different concentrations ensuring that DMSO was at a fixed concentration of 5% (v/v) in the final solution. […] Three or more independent replicates were prepared and analyzed for each system.
# Quartz Suprasil® cuvettes with 1 × 0.4 cm path length were used to gather the spectroscopic data.
# The bandwidth was 4 nm in both excitation and emission paths.
# Whenever the decrease in τ¯ is smaller than the decrease in the steady-state fluorescence intensity, there are multiple quenching mechanisms responsible for a decrease in fluorescence quantum yield, one affecting the amplitude-weighted mean fluorescence lifetime and the fluorescence intensity alike, and another affecting only the fluorescence intensity (a static quenching mechanism). Therefore, for each data point, the decrease in fluorescence intensity that was not due to a decrease in τ¯ was calculated. These values were used to obtain yet another dissociation constant that corresponds to the binding process affecting only the steady-state fluorescence intensity, also shown in Table 3 (K’d). […] This is a consequence of the much larger relative decrease in fluorescence intensity when compared with the decrease in fluorescence lifetime.
# For a static quenching mechanism, K represents the association constant for the formation of non-fluorescent HSA-compound ground-state complex. Therefore, the reverse of K gives an estimate of the dissociation constant. By fitting a straight line to the data in Figure 8 forcing a unitary intercept, i.e., assuming a Stern-Volmer-like behaviour, a reasonable correlation coefficient was obtained in all cases.
# [3] = molecular target: T1, human serum albumin (HSA); details: for 10-3 K’’b / M-1, HSA binding constant from the variation in amplitude-weighted mean fluorescence lifetime: head prints 10-3 K’’b / M-1, reverse of the dissociation constant
# Protocol: as §1
# Time-resolved fluorescence measurements were carried out by the single photon counting technique, using a nanoLED N-280 (Horiba Jobin Yvon, Villeneuve D'ascq, France) for the excitation of the protein. […] Ludox® was the scattering agent used to obtain the instrumental response function. The experimental fluorescence intensity decays were analysed with the software TRFA® version 1.4 (Minsk, Belarus). The fluorescence intensity decays, I(t), were analysed by fitting a sum of exponentials, and the decay law was then obtained according to Eq. 1: I(t)= ∑i=1nαi⁡exp(−t/τi) (1) where α i and τ i are the normalized amplitude and lifetime of component i, respectively.
# The changes in quantum yield due to processes affecting the fluorescence lifetime were assessed from the amplitude-weighted mean fluorescence lifetime, τ¯ , calculated using Eq. 2: τ¯=∑i=1nαiτi (2)
# When used to analyse time-resolved fluorescence data, F is replaced by τ¯ .
# [4] = molecular target: warfarin binding site of HSA (Sudlow's binding site I) (Homo sapiens, UniProt P02768); assay: Competitive binding with warfarin (HSA Sudlow's binding site I)
# Protocol: Warfarin stock solution was also prepared with DMSO.
# The interaction of INH and its derivatives with HSA was further examined regarding their putative binding site.
# Using the dampening in the fluorescence intensity of warfarin it is possible to retrieve the HSA-compound dissociation constant for the binding site of warfarin (K dc) - Table 3.
# From this variation it is possible to retrieve C50, the concentration of compound that displaces half of […]
# This concentration is given by the fluorescence intensity corresponding to […]
# the intensity of warfarin in water (buffer), which was obtained for warfarin in PBS in the absence of HSA. The C50 value was retrieved for each replicate and the average was used to calculate the Kdc of […]
# (1 picture or pasted object on this page, not shown here)
# [5] = test system: M. tuberculosis H37Rv ATCC27294 (wt); details: ref Martins et al., cited from earlier work
# [6] = test system: M. tuberculosis H37Rv ATCC27294 (wt); assay: microbe, parasite or virus in culture; type: cell-based; design: MIC (wt): unit not given here; details: for MIC: Mycobacterium tuberculosis, wt Mtb H37Rv, tested from 0.03125 to 128 µM; for MIC (wt): Table S1; for activity against the wild-type strain: in words
# [7] = Octanol-water partition coefficient, shake-flask method; type: physicochemical; details: pH 7.5, room temperature, preliminary assessment
# Protocol: Lipophilicity was evaluated as log Po/w, the octanol-water partition coefficient obtained by the shake-flask method ([Ràfols et al., 2012]; [Martins et al., 2014]), and as log Kp(NaDS/w) the partition coefficient towards sodium dodecyl sulfate (NaDS) anionic micelles obtained by differential spectrophotometry for INH, INH-C10, N33 and N34 in previous works ([Ràfols et al., 2012]; [Martins et al., 2014]; [Santos et al., 2020]). […] For both compounds, samples were dissolved in water-saturated octanol at pH 7.5 (KH2PO4/NaOH) to guarantee negligible ionization. The partition to octanol-saturated aqueous buffer was evaluated, at room temperature, using a volume ratio, ro/w, of 5/30 and 10/30 for N33red and 2.5/40, 5/40 for N34red, after sonication of the solutions and partition on a mechanical tumbler. Equilibrium concentrations were determined by UV-Vis spectrophotometry between 200 and 500 nm after phase separation.
# [8] = type: physicochemical; details: for stability in aqueous solution: pH 7.4; for fluctuation of the absorption spectra in the UV region: over 3 days, PBS pH 7.4 with 5 % DMSO, N33red at 240 nm, N34red at 269 nm
# Protocol: INH-C10, N33 and N34 were obtained as fully described in reference ([Martins et al., 2014]). N33red and N34red were obtained by reduction of the parent Schiff base. Sodium cyanoborohydride (2 equiv.) was added portion wise to a solution of N33 or N34 in hot methanol. The reaction mixture was acidified with methanolic HCl 5M until pH 3; at that point the solution color changed to dark yellow. The reaction was kept under reflux and monitored by TLC until the starting material was consumed. The solvent was then evaporated under reduced pressure, giving an orange-yellow oil. This residue was dissolved in water and basified to pH > 7 by addition of a few drops of NaOH 6 M, to break up the possible cyanoborate adducts. The solution was then washed with brine and extracted several times with dichloromethane, the combined organic extracts were dried with MgSO4 and the solvent evaporated under reduced pressure affording crude yellowish solids. Pure N33red and N34red were obtained after column chromatography with Et2O/MeOH 96.5:3.5 and by recrystallization from CH2Cl2/petroleum ether 2:3, respectively (adapted from ([Borch et al., 1971])). Both N33red and N34red are very stable in aqueous solution (PBS with 5% DMSO) for at least 48 h (Supplementary Figure S5).
# Figure S5 – Electronic absorption spectra of N33red and N34red in PBS buffer pH 7.4 with 5 % DMSO
# were monitored over 3 days. The fluctuation of the spectra in the UV region of N33red at 240 nm was
# less than 1.2% while for N34red at 269 nm was less than 2.5%. The time dependence of the absorbance
# uncertainty, thus confirming the stability of both compounds for at least 3 days.
# [9] = molecular target: T1, human serum albumin (HSA); design: purchased Merck (Sigma-Aldrich) A9511; method as in Ascenzi et al., 2011; details: ref Ascenzi et al., 2011; read-out: K d for HSA previously reported; cited from earlier work
# [10] = head prints 10-3 Kbc / M-1, equimolar HSA and warfarin, reverse of the dissociation constant
# [11] = HepG2, 72 h incubation, ref Lupien et al., 2018
# warfarin binding site of HSA (Sudlow's binding site I), sequence (P02768 25-609): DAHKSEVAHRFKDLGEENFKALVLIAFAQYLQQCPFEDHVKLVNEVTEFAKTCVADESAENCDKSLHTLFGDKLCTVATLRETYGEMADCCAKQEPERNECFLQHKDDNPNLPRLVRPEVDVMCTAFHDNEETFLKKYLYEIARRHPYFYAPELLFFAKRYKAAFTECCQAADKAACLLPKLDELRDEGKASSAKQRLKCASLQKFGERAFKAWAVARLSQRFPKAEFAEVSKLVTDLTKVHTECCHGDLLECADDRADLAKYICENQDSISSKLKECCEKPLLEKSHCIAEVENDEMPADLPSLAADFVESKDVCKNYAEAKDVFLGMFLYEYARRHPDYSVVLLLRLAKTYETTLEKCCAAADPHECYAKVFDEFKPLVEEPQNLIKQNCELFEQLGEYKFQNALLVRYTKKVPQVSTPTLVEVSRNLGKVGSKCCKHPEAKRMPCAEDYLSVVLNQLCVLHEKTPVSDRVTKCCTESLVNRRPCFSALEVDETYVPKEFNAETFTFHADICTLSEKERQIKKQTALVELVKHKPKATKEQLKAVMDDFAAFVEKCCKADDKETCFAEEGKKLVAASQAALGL
# T1 sequence (P02768 25-609): as above
SMILES,IC50 (HepG2 cells) [µM],Kd [2],"10-3 K’b / M-1, HSA binding constant from fluorescence intensity variation not accounted for by the decrease in lifetime [2]",Kd [3] [µM],Kd [4] [µM],"10-3 Kbc / M-1, binding constant for the warfarin binding site [4, 10]","MIC (wt) ([5]; wt Mtb H37Rv, 2014)",other results
"CN(C)CCCN1c2ccccc2Sc2ccc(Cl)cc21 [Chlorpromazine, reference compound]",13.9,–,–,–,–,–,–,"IC50 (HepG2; same cell line (HepG2), 24 h incubation, ref Wang et al., 2002): 34.7 µM"
"COC(=O)c1ccc(/C=N/NC(=O)c2ccncc2)cc1 [Compound N33, methyl (E)-4-((2-isonicotinoylhydrazineylidene)methyl)benzoate]",> 25,160 µM and 200 µM and 120 µM,5.00 ± 2.50 10^3 M-1,80 ± 60,54 ± 4,18.5 ± 1.3 10^3 M-1,1.06 ^a µM,"log P o/w ± SD ([1]; ref Martins et al., 2014): 1.32 ± 0.06 ^c; 10-3 K’’b / M-1, HSA binding constant from the variation in amplitude-weighted mean fluorescence lifetime [3]: 12.5 ± 9.4 10^3 M-1"
"COC(=O)c1ccc(CNNC(=O)c2ccncc2)cc1 [Compound N33red, methyl 4-((2-isonicotinoylhydrazinyl)methyl)benzoate]",> 200,600 µM (2×) and 560 µM,1.77 ± 0.65 10^3 M-1,–,900 ± 300,–,–,"MIC [6]: 2 µM; MIC (wt) [6]: 0.6; activity against the wild-type strain [6]: active; logP [7]: 1.33 ± 0.04; Kd ([4]; 10-3 Kbc / M-1, binding constant for the warfarin binding site, head prints 10-3 Kbc / M-1, equimolar HSA and warfarin, reverse of the dissociation constant): 746 µM; stability in aqueous solution ([8]; 48 h): at least 48 h; stability in aqueous solution ([8]; 3 days): at least 3 days; fluctuation of the absorption spectra in the UV region [8]: less than 1.2%"
"O=C(N/N=C/c1ccc(Oc2ccccc2)cc1)c1ccncc1 [Compound N34, (E)-N'-(4-phenoxybenzylidene)isonicotinohydrazide]",> 200,130 µM and 110 µM and 70 µM,–,521,128 ± 5,7.8 ± 0.3 10^3 M-1,0.95 ^a µM,–
"O=C(NNCc1ccc(Oc2ccccc2)cc1)c1ccncc1 [Compound N34red, N'-(4-phenoxybenzyl)isonicotinohydrazide]",48.5,150 µM and 140 µM and 90 µM,–,730,340 ± 20,2.99 ± 0.17 10^3 M-1,–,MIC [6]: 1 µM; MIC (wt) [6]: 0.3; activity against the wild-type strain [6]: active; logP [7]: 2.6 ± 0.2; stability in aqueous solution ([8]; 48 h): at least 48 h; stability in aqueous solution ([8]; 3 days): at least 3 days; fluctuation of the absorption spectra in the UV region [8]: less than 2.5%
"NNC(=O)c1ccncc1 [INH, isonicotinoylhydrazide, reference compound]",> 200,2.72 mM (2×) and 1.65 mM,0.37 ± 0.01 10^3 M-1,–,4550 ± 50,0.22 ± 0.01 10^3 M-1,0.29 ^a µM,"log P o/w ± SD ([1]; ref Ràfols et al., 2012): −0.85 ± 0.01 ^b; effect on HepG2 cell viability (HepG2 cells; up to 200 µM, 72 h): did not significantly affect HepG2 cell viability; Kd ([2]; K d for HSA, fluorescence intensity corrected for inner filter effects, steady-state fluorescence, text and Figure S7): ~1000 µM; Kd [9]: 390 µM; MIC (wt) ([5]; Table S1, 2014 (per Table 2)): 0.04 g/mL"
"CCCCCCCCCC(=O)NNC(=O)c1ccncc1 [INH-C10, N′-decanoylisonicotinoylhydrazide]",> 25,46 µM and 50 µM and 70 µM,18.6 ± 5.58 10^3 M-1,120 ± 3,400 ± 200,2.43 ± 0.86 10^3 M-1,0.38 ^a µM,"log P o/w ± SD ([1]; ref Ràfols et al., 2012): 3.5 ± 0.2 ^b; 10-3 K’’b / M-1, HSA binding constant from the variation in amplitude-weighted mean fluorescence lifetime [3]: 8.33 ± 0.21 10^3 M-1"
CO[C@H]1/C=C/O[C@@]2(C)Oc3c(C)c(O)c4c(O)c(c(/C=N/N5CCN(C)CC5)c(O)c4c3C2=O)NC(=O)/C(C)=C\C=C\[C@H](C)[C@H](O)[C@@H](C)[C@@H](O)[C@@H](C)[C@H](OC(C)=O)[C@@H]1C [Rifampin],–,–,–,–,–,–,–,"IC50 (HepG2; ref Vahdati-Mashhadian et al., 2013): 25.5 µM"
COc1nc2ccc(Br)cc2cc1[C@@H](c1ccccc1)[C@@](O)(CCN(C)C)c1cccc2ccccc12 [bedaquiline],–,–,–,–,–,–,–,IC50 (HepG2; [11]): 17.4 µM
C[C@]1(COc2ccc(N3CCC(Oc4ccc(OC(F)(F)F)cc4)CC3)cc2)Cn2cc([N+](=O)[O-])nc2O1 [delamanid],–,–,–,–,–,–,–,IC50 (HepG2; [11]): 98.9 µM
